{
  "source": "patent US20240425478A1",
  "about": "“CYCLOPENTYLPYRAZOLE CDK2 INHIBITORS” (Genentech, Inc., priority 2021, published 2024)",
  "key": {"[1]": {"molecular_target": "T1, Cyclin Dependent Kinase 1/Cyclin A2 (CDK1-cycA2) (Homo sapiens, UniProt P06493)", "T1 construct": "purchased ProQinase 0134-0054-1", "T1 sequence (P06493 whole entry)": "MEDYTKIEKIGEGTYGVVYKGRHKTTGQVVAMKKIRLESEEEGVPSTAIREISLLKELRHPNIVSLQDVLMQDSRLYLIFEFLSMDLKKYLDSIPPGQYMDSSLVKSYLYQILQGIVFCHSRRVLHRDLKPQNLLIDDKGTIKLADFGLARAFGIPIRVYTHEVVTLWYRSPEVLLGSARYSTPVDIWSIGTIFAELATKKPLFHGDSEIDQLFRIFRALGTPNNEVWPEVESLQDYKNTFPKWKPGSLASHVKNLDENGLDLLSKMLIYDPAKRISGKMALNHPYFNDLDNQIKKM", "T1 sequence (P20248 whole entry partner)": "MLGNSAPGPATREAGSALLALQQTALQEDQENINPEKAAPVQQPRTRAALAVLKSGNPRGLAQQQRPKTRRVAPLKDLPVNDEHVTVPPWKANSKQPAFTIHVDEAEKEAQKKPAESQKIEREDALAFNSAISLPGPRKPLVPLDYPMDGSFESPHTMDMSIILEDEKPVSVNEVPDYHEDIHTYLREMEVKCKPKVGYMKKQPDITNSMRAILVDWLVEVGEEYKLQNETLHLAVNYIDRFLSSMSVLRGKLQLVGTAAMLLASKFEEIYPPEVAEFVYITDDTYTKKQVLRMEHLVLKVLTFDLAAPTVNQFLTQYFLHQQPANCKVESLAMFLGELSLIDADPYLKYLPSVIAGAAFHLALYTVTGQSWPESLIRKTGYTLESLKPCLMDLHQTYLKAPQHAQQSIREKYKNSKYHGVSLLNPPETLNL", "experiment": "CDK1-cycA2 TR-FRET (Lance) enzyme assay", "type": "biochemical", "settings": "for Ki: Table O, enzymatic assay; for FS CDK1/CDK2: fold selectivity, enzymatic Ki ratio", "outline": "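TR-FRET (Lance) detection of phospho-4E-BP1 with a europium-labelled antibody after EDTA quench (15 mM final); signal taken as acceptor/donor ratio. Enzyme and compound were pre-incubated 30 min in HEPES pH 7.5 buffer with MgCl2, TCEP, BGG and Brij 35. Ki derived by Morrison fit.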"}, "[2]": {"molecular_target": "T2, Cyclin Dependent Kinase 2/Cyclin E1 (CDK2-cycE1) (Homo sapiens, UniProt P24941)", "T2 construct": "purchased ProQinase 0050-0055-1", "experiment": "CDK2-cycE1 TR-FRET (LANCE) enzyme assay", "type": "biochemical", "settings": "for FS CDK1/CDK2 / FS CDK4/CDK2: fold selectivity; for FS CDK1/CDK2: enzymatic CDK1 Ki over CDK2 Ki; for FS CDK4/CDK2: enzymatic CDK4 Ki over CDK2 Ki", "outline": "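Kinase reaction buffer: 50 mM HEPES pH 7.5, 10 mM MgCl2, 2 mM TCEP, 0.05% BGG, 0.01% Brij 35, with 30 min compound–enzyme pre-incubation.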"}, "[3]": {"molecular_target": "T3, Cyclin Dependent Kinase 4/Cyclin D3 (CDK4-cycD3) (Homo sapiens, UniProt P11802)", "T3 construct": "purchased Carna Biosciences 04-105", "T3 sequence (P11802 whole entry)": "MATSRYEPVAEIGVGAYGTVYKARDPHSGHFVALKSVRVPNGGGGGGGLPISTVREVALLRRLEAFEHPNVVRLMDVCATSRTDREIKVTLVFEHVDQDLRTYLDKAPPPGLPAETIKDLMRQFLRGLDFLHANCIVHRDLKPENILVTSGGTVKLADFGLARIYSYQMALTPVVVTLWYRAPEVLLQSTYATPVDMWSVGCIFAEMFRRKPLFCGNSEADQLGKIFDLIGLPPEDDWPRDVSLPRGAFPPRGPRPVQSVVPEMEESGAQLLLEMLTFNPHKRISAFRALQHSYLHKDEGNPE", "T3 sequence (P30281 whole entry partner)": "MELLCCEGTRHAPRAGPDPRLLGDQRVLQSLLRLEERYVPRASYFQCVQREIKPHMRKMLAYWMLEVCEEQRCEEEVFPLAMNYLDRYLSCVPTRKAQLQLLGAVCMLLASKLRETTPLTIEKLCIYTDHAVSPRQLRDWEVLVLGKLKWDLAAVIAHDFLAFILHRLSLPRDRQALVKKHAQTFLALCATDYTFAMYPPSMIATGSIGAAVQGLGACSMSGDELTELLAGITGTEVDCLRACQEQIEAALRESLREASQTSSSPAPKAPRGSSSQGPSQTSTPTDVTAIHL", "experiment": "CDK4-cycD3 TR-FRET (LANCE) enzyme assay", "type": "biochemical", "settings": "for Ki: Table O, enzymatic assay", "outline": "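Compound dose responses pre-incubated 30 min with enzyme mix in 50 mM HEPES pH 7.5, 10 mM MgCl2, 2 mM TCEP, 0.05% BGG, 0.01% Brij 35. Reaction quenched with EDTA (15 mM final); Eu-anti-phospho-4E-BP1 TR-FRET detection, acceptor/donor ratio. Ki derived by Morrison equation.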"}, "[4]": {"test_system": "OVISE (JCRB1043, CCNE1-amplified)", "experiment": "OVISE EdU incorporation cell proliferation assay (CDK2-dependent)", "type": "cell-based", "settings": "for IC50 / FS SKOV-3/OVISE / FS p-H3/OVISE: Table O; for IC50: cellular assay, read-out: CDK2 OVISE IC50; for FS SKOV-3/OVISE / FS p-H3/OVISE: fold selectivity; for FS SKOV-3/OVISE: cellular SKOV-3 IC50 over OVISE IC50; for FS p-H3/OVISE: cellular p-H3 IC50 over OVISE IC50", "outline": "(§1)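 EdU incorporation (0.5 μM final, last 8 h) follows a 16 h compound exposure at 37 °C, 5% CO2 in RPMI plus 10% FBS, 0.5% DMSO. After fixation, imaging scores EdU-positive cells; a 4-parameter logistic fit of that fraction gives IC50.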"}, "SKOV-3 (ATCC HTB-77)": {"test_system": "SKOV-3 (ATCC HTB-77)", "experiment": "SKOV-3 EdU incorporation cell proliferation assay (CDK4/6-dependent)", "type": "cell-based", "settings": "for IC50: Homo sapiens, SK-OV-3, Table O, cellular assay, read-out: CDK4/6 SKOV-3 IC50; for FS SKOV-3/OVISE: fold selectivity", "outline": "as §1"}, "HCT116 cells": {"test_system": "HCT116 cells", "experiment": "p-H3 HCT-116 mitotic release cell proliferation assay (cellular CDK1)", "type": "cell-based", "settings": "for IC50: Homo sapiens, HCT-116, Table O, cellular assay, read-out: CDK1 p-H3 IC50", "outline": "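Phospho-Histone H3 (Ser10) in lysates was quantified by a two-antibody HTRF FRET read (≥2 h, room temperature). Before this, HCT116 cells held in mitosis by 16 h of 500 nM nocodazole were treated with compound for 4 h at 37 °C, 0.1% DMSO.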"}, "[5]": {"settings": "Table O, enzymatic assay, read-out: CDK2 Ki"}, "[6]": {"settings": "SKOV-3/OVISE fold-selectivity cellular assay data"}},
  "note": "Several values for one entry are separate records, joined by “and”; a condition that tells them apart may be missing. Identical values can stand only once. Like-named read-outs stand apart in the source and are kept apart here.",
  "data": [
    {"smiles": "CC(C)(C)NC(=O)O[C@@H]1CC[C@H](c2cc(Nc3ccnnc3)n[nH]2)C1", "note": "[Example 4K, (1R,3S)-3-(3-(pyridazin-4-ylamino)-1H-pyrazol-5-yl)cyclopentyl tert-butylcarbamate]", "values": [
      {"measurement": "Ki", "setting": "[1]", "result": 27, "unit": "nM"},
      {"measurement": "FS CDK1/CDK2 increased over Comparator D, (+) sign", "setting": "[1]; Table R", "result": "(+)"},
      {"measurement": "FS CDK1/CDK2", "setting": "[1]; Table R", "result": 54},
      {"measurement": "FS CDK1/CDK2", "setting": "[1]; Table S", "result": 54},
      {"measurement": "FS CDK1/CDK2", "setting": "[1]; Table P", "result": 54},
      {"measurement": "Ki", "setting": "[2]; [5]", "result": 0.45, "unit": "nM"},
      {"measurement": "FS CDK1/CDK2", "setting": "[2]; Table O", "result": 54},
      {"measurement": "FS CDK4/CDK2", "setting": "[2]; Table O", "result": 104},
      {"measurement": "Ki", "setting": "[2]; Table R, enzymatic assay, read-out: CDK2 Ki", "result": 0.45, "unit": "nM"},
      {"measurement": "CDK2 Ki fold change in potency versus Comparator D", "setting": "[2]; Table R, in brackets after CDK2 Ki", "result": 6, "unit": "fold"},
      {"measurement": "Ki", "setting": "[2]; Table S, enzymatic assay, read-out: CDK2 Ki", "result": 0.45, "unit": "nM"},
      {"measurement": "CDK2 Ki fold change in potency versus Comparator E", "setting": "[2]; Table S, in brackets after CDK2 Ki", "result": 1.2, "unit": "fold"},
      {"measurement": "Ki", "setting": "[2]; enzymatic assay, Table P, read-out: CDK2 Ki", "result": 0.45, "unit": "nM"},
      {"measurement": "CDK2 Ki fold potency relative to Comparator A", "setting": "[2]; first bracket in CDK2 Ki cell, Table P", "result": 0.4, "unit": "fold"},
      {"measurement": "Ki", "setting": "[2]; read-out: CDK2 activity / potency (enzymatic assay)", "result": "≤ 1 nM and 0.45 nM"},
      {"measurement": "CDK2 Ki fold potency relative to Comparator B", "setting": "[2]; second bracket in CDK2 Ki cell, Table P", "result": 2, "unit": "fold"},
      {"measurement": "Ki", "setting": "[3]", "result": 52, "unit": "nM"},
      {"measurement": "FS CDK4/CDK2 increased over Comparator D, (+) sign", "setting": "[3]; Table R", "result": "(+)"},
      {"measurement": "FS CDK4/CDK2 increased over Comparator E, (+) sign", "setting": "[3]; Table S", "result": "(+)"},
      {"measurement": "CDK2 cell potency compared with Comparator E", "setting": "[4]; CDK2 OVISE cellular assay data", "result": "more potent CDK2 cell inhibitors compared to Comparator E"},
      {"measurement": "IC50", "setting": "[4]", "result": 78, "unit": "nM"},
      {"measurement": "FS SKOV-3/OVISE", "setting": "[4]", "result": 71},
      {"measurement": "FS p-H3/OVISE", "setting": "[4]", "result": 2.1},
      {"measurement": "CDK2 OVISE IC50 fold change in potency versus Comparator D", "setting": "[4]; Table R, in brackets after OVISE IC50", "result": 49, "unit": "fold"},
      {"measurement": "CDK2 OVISE IC50 fold change in potency versus Comparator E", "setting": "[4]; Table S, in brackets after OVISE IC50", "result": 2.2, "unit": "fold"},
      {"measurement": "CDK2 OVISE IC50 fold potency relative to Comparator A", "setting": "[4]; first bracket in OVISE IC50 cell, Table P", "result": 0.5, "unit": "fold"},
      {"measurement": "CDK2 OVISE IC50 fold potency relative to Comparator B", "setting": "[4]; second bracket in OVISE IC50 cell, Table P", "result": 1.8, "unit": "fold"},
      {"measurement": "IC50", "setting": "SKOV-3 (ATCC HTB-77)", "result": 5500, "unit": "nM"},
      {"measurement": "CDK2 selectivity over CDK4/6 compared with Comparators A and B", "setting": "SKOV-3 (ATCC HTB-77); [6]", "result": "at least three times more CDK2 selective over CDK4/6"},
      {"measurement": "selectivity for CDK2 over CDK4 compared with Comparator E", "setting": "SKOV-3 (ATCC HTB-77); [6]", "result": "increase in selectivity for CDK2 over CDK4"},
      {"measurement": "FS SKOV-3/OVISE increased over Comparator D, (+) sign", "setting": "SKOV-3 (ATCC HTB-77); Table R", "result": "(+)"},
      {"measurement": "FS SKOV-3/OVISE", "setting": "SKOV-3 (ATCC HTB-77); Table R, cellular IC50 ratio", "result": 71},
      {"measurement": "FS SKOV-3/OVISE increased over Comparator E, (+) sign", "setting": "SKOV-3 (ATCC HTB-77); Table S", "result": "(+)"},
      {"measurement": "FS SKOV-3/OVISE", "setting": "SKOV-3 (ATCC HTB-77); Table S, cellular IC50 ratio", "result": 71},
      {"measurement": "FS SKOV-3/OVISE compared with Comparator A", "setting": "SKOV-3 (ATCC HTB-77); first sign in cell, Table P", "result": "(+)"},
      {"measurement": "FS SKOV-3/OVISE", "setting": "SKOV-3 (ATCC HTB-77); cellular IC50 ratio (CDK4/6 over CDK2), Table P", "result": 71},
      {"measurement": "FS SKOV-3/OVISE compared with Comparator B", "setting": "SKOV-3 (ATCC HTB-77); second sign in cell, Table P", "result": "(+)"},
      {"measurement": "pH3/OVISE fold selectivity (CDK1 over CDK2, cellular assay data)", "setting": "HCT116 cells", "result": 2.1, "unit": "fold"},
      {"measurement": "IC50", "setting": "HCT116 cells", "result": 160, "unit": "nM"},
      {"measurement": "FS p-H3/OVISE compared with Comparator A", "setting": "HCT116 cells; first sign in cell, Table P", "result": "(+)"},
      {"measurement": "FS p-H3/OVISE", "setting": "HCT116 cells; fold selectivity, cellular IC50 ratio (CDK1 over CDK2), Table P", "result": 2.1},
      {"measurement": "FS p-H3/OVISE compared with Comparator B", "setting": "HCT116 cells; second sign in cell, Table P", "result": "(+)"}
    ]},
    {"smiles": "CC1(NC(=O)O[C@@H]2CC[C@H](c3cc(Nc4cccnn4)n[nH]3)C2)CC1", "note": "[Example 3A, (1R,3S)-3-(3-(pyridazin-3-ylamino)-1H-pyrazol-5-yl)cyclopentyl (1-methylcyclopropyl)carbamate]", "values": [
      {"measurement": "Ki", "setting": "[1]", "result": 72, "unit": "nM"},
      {"measurement": "Ki", "setting": "[2]; [5]", "result": 2.5, "unit": "nM"},
      {"measurement": "FS CDK1/CDK2", "setting": "[2]; Table O", "result": 29},
      {"measurement": "FS CDK4/CDK2", "setting": "[2]; Table O", "result": 60},
      {"measurement": "Ki", "setting": "[3]", "result": 150, "unit": "nM"},
      {"measurement": "IC50", "setting": "[4]", "result": 130, "unit": "nM"},
      {"measurement": "FS SKOV-3/OVISE", "setting": "[4]", "result": 21},
      {"measurement": "FS p-H3/OVISE", "setting": "[4]", "result": 1.2},
      {"measurement": "IC50", "setting": "SKOV-3 (ATCC HTB-77)", "result": 2700, "unit": "nM"},
      {"measurement": "IC50", "setting": "HCT116 cells", "result": 160, "unit": "nM"}
    ]}
  ]
}
